Measured values from paper PMC12494546, “Structural basis of heme scavenging by the ChtA and HtaA hemophores in Corynebacterium diphtheriae” (The Journal of Biological Chemistry, 2025).

How the values were obtained:
[1] = target: T1, ChtA^CR (WT) (Corynebacterium diphtheriae, UniProt Q6NGJ3); assay: Isothermal titration calorimetry with apo-protein injected into hemin chloride at 25 °C in 50 mM Tris-HCl pH 8.0, 200 mM NaCl, 5% DMSO, fitted to a one-site binding model.; details: SEM, n = 3
T1 construct: gene DIP1520; CR domain, ChtA residues 112-291 (K112-G291); N-terminal SUMO/6xHis tag removed by ULP1; apo-form
T1 sequence (Q6NGJ3 entry or part of it): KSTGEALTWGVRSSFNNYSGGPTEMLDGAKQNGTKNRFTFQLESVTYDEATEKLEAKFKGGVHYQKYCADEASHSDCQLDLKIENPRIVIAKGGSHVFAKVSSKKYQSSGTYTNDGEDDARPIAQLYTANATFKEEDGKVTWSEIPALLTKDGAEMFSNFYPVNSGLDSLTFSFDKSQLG
Description: (§1) Isothermal titration calorimetry
(§2) Protein samples were equilibrated in titration buffer supplemented with 5% (v/v) DMSO. […] Binding isotherms were fit to a one-site binding model using the program ORIGIN ([91]).

[2] = target: T2, K177G (Corynebacterium diphtheriae, UniProt Q6NGJ3, K177G); assay: as above; details: SEM, n = 3
T2 construct: gene DIP1520; CR domain, ChtA residues 112-291; N-terminal SUMO/6xHis tag removed by ULP1; apo-form
T2 sequence (Q6NGJ3 112-291 K177G): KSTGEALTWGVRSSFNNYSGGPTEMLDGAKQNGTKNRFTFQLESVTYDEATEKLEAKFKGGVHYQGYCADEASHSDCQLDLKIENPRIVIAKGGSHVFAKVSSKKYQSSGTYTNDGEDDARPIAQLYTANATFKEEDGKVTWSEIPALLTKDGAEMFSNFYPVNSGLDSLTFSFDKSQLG
Description: as §1, §2

[3] = target: T3, K177G + Y178H (Corynebacterium diphtheriae, UniProt Q6NGJ3, K177G/Y178H); assay: as above; details: SEM, n = 3
T3 construct: gene DIP1520; CR domain, ChtA residues 112-291; N-terminal SUMO/6xHis tag removed by ULP1; apo-form
Description: as §1, §2

[4] = target: T4, Y129A (Corynebacterium diphtheriae, UniProt Q6NGJ3, Y129A); assay: as above; details: n = 3
T4 construct: gene DIP1520; CR domain, ChtA residues 112-291; N-terminal SUMO/6xHis tag removed by ULP1; apo-form
Description: as §1, §2

[5] = target: T5, Y178A (Corynebacterium diphtheriae, UniProt Q6NGJ3, Y178A); assay: as above; details: SEM, n = 3
T5 construct: gene DIP1520; CR domain, ChtA residues 112-291; N-terminal SUMO/6xHis tag removed by ULP1; apo-form
T5 sequence (Q6NGJ3 112-291 Y178A): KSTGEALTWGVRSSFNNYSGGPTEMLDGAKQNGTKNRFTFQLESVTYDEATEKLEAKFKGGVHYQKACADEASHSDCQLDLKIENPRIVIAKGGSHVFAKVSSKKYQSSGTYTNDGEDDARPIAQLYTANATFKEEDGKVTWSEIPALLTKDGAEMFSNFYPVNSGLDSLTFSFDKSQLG
Description: as §1, §2

[6] = target: T6, Y178H (Corynebacterium diphtheriae, UniProt Q6NGJ3, Y178H); assay: as above; details: SEM, n = 3
T6 construct: gene DIP1520; CR domain, ChtA residues 112-291; N-terminal SUMO/6xHis tag removed by ULP1; apo-form
Description: as §1, §2

[7] = target: T7, HtaA^CR1 (Corynebacterium diphtheriae, UniProt Q6NIZ1); assay: Hemin partitioning between pairs of CR domains at equilibrium measured by native nano-ESI-MS in 50 mM ammonium acetate pH 6.9 at 24 °C, with Krel converted to KD using the ITC KD of ChtA^CR as reference.; assay type: binding; details: read-out: estimated KD values for hemin
T7 construct: gene DIP0625; N-terminal CR domain CR1, HtaA residues 36-221 (methods; S37-G214 in results); N-terminal SUMO/6xHis tag removed by ULP1
T7 sequence (Q6NIZ1 entry or part of it): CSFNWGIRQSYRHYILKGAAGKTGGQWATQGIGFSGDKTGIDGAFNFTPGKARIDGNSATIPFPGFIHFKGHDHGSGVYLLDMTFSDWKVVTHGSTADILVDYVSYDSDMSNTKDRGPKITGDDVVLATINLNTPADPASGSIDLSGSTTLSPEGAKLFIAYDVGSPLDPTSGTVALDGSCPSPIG
Description: (§3) The C. diphtheriae hemin-uptake system contains six CR domains that are located at distinct sites outside the cell (Fig. 1). […] Together, they represent nearly the full complement of C. diphtheriae’s CR domains (only the domains from ChtB and ChtC are missing, but they are expected to have similar binding properties as their paralogs, HtaB and ChtA, respectively). […] Similar measurements were made for the following protein pairs: HtaA^CR2/HtaB^CR, HtaA^CR1/HtaB^CR, HtaA^CR2/HtaA^CR1, ChtA^CR/HtaA^CR2, and ChtA^CR/HtaB^CR (Table S4).
(§4) nESI-MS was used for ligand (heme)-competition experiments between CR domain pairs to determine their relative heme dissociation constant Krelative (Krel) ([37], [56]). In this approach, two different CR domains (e.g. a >90% heme-loaded “heme donor” and a <10% heme-loaded “heme acceptor” CR domain) are mixed and allowed to come to equilibrium (>6 h, 24 °C). The resulting mixture is then analyzed by nESI-MS, where the apo- and holo-abundance of each CR domain is determined from the sum peak intensity from each of their charge states as described previously ([37]). The relative affinity between the CR pair tested can be determined by their nESI-MS abundances according to Equation 1, which is derived from the ratio of each CR’s KD for heme. Importantly, this analysis is independent of [heme] and Krel should be consistent across different concentrations of [heme donor] and [heme acceptor]; thus, we used at least three different holo-donor and apo-acceptor stoichiometry ratios to determine each Krel reported in Table S4.(eq. 1) KRelative=[CR^hemeacceptor][CR^hemedonor·heme]/[CR^hemedonor][CR^hemeacceptor·heme]=Ab(CR^hemeacceptor)Ab(CR^hemedonor·heme)/Ab(CR^hemedonor)Ab(CR^hemeacceptor·heme)
(§5) For nESI-MS heme-competition experiments, CR domains were first buffer-exchanged into 50 mM ammonium acetate (pH 6.9) using dialysis or gel filtration and protein concentration was determined by bicinchoninic acid assay or UV-visible absorbance at 280 nm. […]

[8] = target: T8, HtaA^CR2 (Corynebacterium diphtheriae, UniProt Q6NIZ1); assay: as above; assay type: binding; details: read-out: estimated KD values for hemin
T8 construct: gene DIP0625; C-terminal CR domain CR2, HtaA residues 344-506 (G344-G506); N-terminal SUMO/6xHis tag removed by ULP1
T8 sequence (Q6NIZ1 entry or part of it): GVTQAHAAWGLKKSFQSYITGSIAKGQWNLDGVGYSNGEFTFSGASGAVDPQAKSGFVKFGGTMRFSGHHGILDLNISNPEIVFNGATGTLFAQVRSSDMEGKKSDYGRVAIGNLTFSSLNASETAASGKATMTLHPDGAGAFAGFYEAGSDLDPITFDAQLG
Description: as §3, §4, §5

[9] = target: T9, HtaB^CR (Corynebacterium diphtheriae, UniProt Q6NIY7); assay: as above; assay type: binding; details: read-out: estimated KD values for hemin
T9 construct: gene DIP0629; CR domain, HtaB residues 30-273; N-terminal SUMO/6xHis tag removed by ULP1
T9 sequence (Q6NIY7 entry or part of it): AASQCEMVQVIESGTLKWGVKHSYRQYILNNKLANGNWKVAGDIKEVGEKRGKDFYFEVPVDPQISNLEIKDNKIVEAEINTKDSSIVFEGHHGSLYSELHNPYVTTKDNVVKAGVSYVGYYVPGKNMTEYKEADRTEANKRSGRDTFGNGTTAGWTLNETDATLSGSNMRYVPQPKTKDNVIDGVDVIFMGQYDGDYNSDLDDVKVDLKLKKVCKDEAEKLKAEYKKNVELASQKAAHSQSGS
Description: as §3, §4, §5

C=CC1=C(C)c2cc3[nH]c(cc4nc(cc5[nH]c(cc1n2)c(C)c5CCC(=O)O)C(CCC(=O)O)=C4C)c(C)c3C=C.[Fe+3] [hemin, ferric heme (iron(III)-protoporphyrin IX; used as hemin chloride)]
Kd [1]: 22.4 ± 5.3 nM
Kd [2]: 23.6 ± 0.8 nM
Kd [3]: 27.1 ± 9 nM
Kd [4]: > 500 nM
Kd [5]: 46.6 ± 9.6 nM
Kd [6]: 54.8 ± 1.9 nM
Kd [7]: 1.1 nM
Kd [8]: 0.85 nM
Kd [9]: 5.4 nM
